Counter-ions that a name gives are not always drawn.
Experiments:
S. aureus 133 = test: Minimum inhibitory concentration (MIC), liquid dilution test; type: cell-based; details: minimal medium with 0.4% BH broth, 37° C., 18-24 h
From the text: (§1) Determination of the Minimum Inhibitory Concentration (MIC):
(§2) The inhibitor concentration can in these cases be determined by standard microbiological methods (see, for example, The National Committee for Clinical Laboratory Standards. Methods for dilution antimicrobial susceptibility tests for bacteria that grow aerobically; approved standard-fifth edition. NCCLS document M7-A5 [ISBN 1-56238-394-9]. NCCLS, 940 West Valley Road, Suite 1400, Wayne, Pa. 19087-1898 USA, 2000). The MIC of the compounds of the invention is determined in the liquid dilution test on the 96-well microtiter plate scale. The bacterial microbes are cultivated in a minimal medium (18.5 mM Na2HPO4, 5.7 mM KH2PO4, 9.3 mM NH4Cl, 2.8 mM MgSO4, 17.1 mM NaCl, 0.033 μg/ml thiamine hydrochloride, 1.2 μg/ml nicotinic acid, 0.003 μg/ml biotin, 1% glucose, 25 μg/ml of each proteinogenic amino acid with the exception of phenylalanine; [H.-P. Kroll; unpublished]) with addition of 0.4% BH broth (test medium). In the case of Enterococcus faecalis ICB 27159, heat-inactivated fetal calf serum (FCS; GibcoBRL, Germany) is added to the test medium in a final concentration of 10%. Overnight cultures of the test microbes are diluted to an OD578 of 0.001 (to 0.01 in the case of Enterococci) in fresh test medium, and incubated 1:1 with dilutions of the test substances (1:2 dilution steps) in test medium (150 μl final volume). The cultures are incubated at 37° C. for 18-24 hours; Enterococci in the presence of 5% CO2.
(§3) The lowest substance concentration in each case at which bacterial growth was no longer visible is defined as the MIC. […] The compounds show a graded antibacterial effect against most of the test microbes.

[1] = tested on: S. aureus 133 Translation; test: In vitro transcription-translation with S. aureus extracts; type: biochemical; details: S30 extract, plasmid p1a template, firefly luciferase, 30° C. 60 min
From the text: (§4) In Vitro Transcription-Translation with S. aureus Extracts
(§5) Construction of an S. aureus Luciferase Reporter Plasmid
(§6) A reporter plasmid which can be used in an in vitro transcription-translation assay for S. aureus is constructed by using the plasmid pBESTluc (Promega Corporation, USA). The E. coli tac promoter present in this plasmid in front of the firefly luciferase is replaced by the capA1 promoter with appropriate Shine-Dalgarno sequence from S. aureus. The primers CAPFor 5′-CGGCCAAGCTTACTCGGAT-[…] […]-3′ and CAPRev 5′-[…]-3′ are used for this. The primer CAPFor contains the capA1 promoter, the ribosome binding site and the 5′ region of the luciferase gene. After PCR using pBESTluc as template it is possible to isolate a PCR product which contains the firefly luciferase gene with the fused capA1 promoter. This is, after restriction with ClaI and HindIII, ligated into the vector pBESTluc which has likewise been digested with ClaI and HindIII. The resulting plasmid p1a is able to replicate in E. coli and be used as template in the S. aureus in vitro transcription-translation assay.
(§7) Preparation of S30 Extracts from S. aureus
(§8) Six liters of BHI medium are inoculated with a 250 ml overnight culture of an S. aureus strain and allowed to grow at 37° C. until the OD600 nm is 2-4. The cells are harvested by centrifugation and washed in 500 ml of cold buffer A (10 mM Tris acetate, pH 8.0, 14 mM Mg acetate, 1 mM DTT, 1 M KCl). After renewed centrifugation, the cells are washed in 250 ml of cold buffer A with 50 mM KCl, and the resulting pellets are frozen at −20° C. for 60 min. The pellets are thawed on ice in 30 to 60 min and taken up to a total volume of 99 ml in buffer B (10 mM Tris acetate, pH 8.0, 20 mM Mg acetate, 1 mM DTT, 50 mM KCl). 1.5 ml portions of lysostaphin (0.8 mg/ml) in buffer B are each introduced into 3 precooled centrifuge cups and each mixed with 33 ml of the cell suspension. The samples are incubated at 37° C., shaking occasionally, for 45 to 60 min, before 150 μl of a 0.5 M DTT solution are added. The lyzed cells are centrifuged at 30 000×g and 4° C. for 30 min. The cell pellet is taken up in buffer B and then centrifuged again under the same conditions, and the collected supernatants are combined. […]
(§9) Inhibition of protein biosynthesis of the compounds can be shown in an in vitro transcription-translation assay. […] The activity of the resulting luciferase can be detected by luminescence measurement. […]

B. catarrhalis M3 = test: Minimum inhibitory concentration (MIC), liquid dilution test; type: cell-based; details: Moraxella catarrhalis, minimal medium with 0.4% BH broth, 37° C., 18-24 h
From the text: as §1, §2, §3

[2] = tested on: Enterococcus faecalis ICB 27159; test: as above; type: cell-based; details: ICB27159, test medium with 10% heat-inactivated FCS, 5% CO2, 37° C., 18-24 h, read-out: MIC E. faecalis ICB 27159
From the text: as §1, §2, §3

S. aureus RN4220 = test: as above; type: cell-based; details: Staphylococcus aureus, minimal medium with 0.4% BH broth, 37° C., 18-24 h
From the text: as §1, §2, §3

S. aureus 25701 = test: as above; type: cell-based; details: Staphylococcus aureus, minimal medium with 0.4% BH broth, 37° C., 18-24 h
From the text: as §1, §2, §3

[3] = tested on: S. aureus RN4220 Translation; test: In vitro transcription-translation with S. aureus extracts; type: biochemical; details: S30 extract, plasmid p1a template, firefly luciferase, 30° C. 60 min
From the text: as §4, §5, §6, §7, §8, §9

[4] = tested on: E. coli MRE600 Translation; test: In vitro transcription-translation with E. coli extracts; type: biochemical, Escherichia coli; details: S30 extract, pBESTLuc template, firefly luciferase, 30° C. 60 min
Description: In Vitro Transcription-Translation with E. coli Extracts
An S30 extract is prepared by harvesting logarithmically growing Escherichia coli MRE 600 (M. Müller; University Freiburg), washing and employing them as described for the in vitro transcription-translation assay (Müller, M. and Blobel, G. Proc Natl Acad Sci USA (1984) 81, pp. 7421-7425).
1 μl of cAMP (11.25 mg/ml) are additionally added per 50 μl of reaction mix to the reaction mix for the in vitro transcription-translation assay. The assay mixture amounts to 105 μl, with 5 μl of the substance to be tested being introduced in 5% strength DMSO. 1 μg/100 pt of mixture of the plasmid pBESTLuc (Promega, Germany) are used as transcription template. After incubation at 30° C. for 60 min, 50 pt of luciferin solution (20 mM tricine, 2.67 mM MgSO4, 0.1 mM EDTA, 33.3 mM DTT pH 7.8, 270 μM CoA, 470 μM luciferin, 530 μM ATP) are added, and the resulting bioluminescence is measured in a luminometer for 1 minute. The IC50 is indicated by the concentration of an inhibitor which leads to 50% inhibition of the translation of firefly luciferase.

“2-Aminoethyl-(8S,11S,14S)-14-amino-11-[(2R)-3-amino-2-hydroxypropyl]-5,17-dihydroxy-9-methyl-10,13-dioxo-9,12-diazatricyclo[14.3.1.1^2,6]henicosa-1(20),2(21),3,5,16,18-hexaene-8-carboxylate trihydrochloride [Example 10]” was tested, and the MIC (S. aureus 133) was 3.1 µM and the IC50 [1] was 700 nM.
`COC(=O)[C@@H]1Cc2cc(ccc2O)-c2ccc(O)c(c2)C[C@H](N)C(=O)N[C@@H](C[C@@H](O)CN)C(=O)N1` [Example 1, Methyl(8S,11S,14S)-14-amino-11-[(2R)-3-amino-2-hydroxypropyl]-5,17-dihydroxy-10,13-dioxo-9,12-diazatricyclo[14.3.1.1^2,6]henicosa-1(20),2(21),3,5,16,18-hexaene-8-carboxylate dihydrochloride] gave an MIC (B. catarrhalis M3) of 1.56 µM, an MIC (S. aureus 133; Staphylococcus aureus, 133) of 3.13 µM and an MIC [2] of 1.56 µM. For the same molecule, the MIC (S. aureus RN4220) was 0.4 µM, the MIC (S. aureus 25701) was 12.5 µM and the IC50 [1] was 500 to 3000 nM. The IC50 [3] was 1700 nM and the IC50 [4] was 500 nM.
`CCOC(=O)[C@@H]1Cc2cc(ccc2O)-c2ccc(O)c(c2)C[C@H](N)C(=O)N[C@@H](C[C@@H](O)CN)C(=O)N1` [Example 2, Ethyl(8S,11S,14S)-14-amino-11-[(2R)-3-amino-2-hydroxypropyl]-5,17-dihydroxy-10,13-dioxo-9,12-diazatricyclo[14.3.1.1^2,6]henicosa-1(20),2(21),3,5,16,18-hexaene-8-carboxylate dihydrochloride] showed an MIC (B. catarrhalis M3) of 6.25 µM, an MIC (S. aureus 133; Staphylococcus aureus, 133) of 0.78 µM and an IC50 [1] of 2400 to 4300 nM. The IC50 [4] was 200 nM.
